Experimental data reported in PubChem BioAssay (NCI).
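Grown in 96-well plates, cells were treated for 48 hours with each compound at five concentrations. Insufficient inhibition: endpoint recorded as highest concentration tested. TGI denotes the concentration required for complete inhibition of growth.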

Tests used:
Experiment in all cases: inhibition of tumour cell growth, NCI panel, 48 h
[1] = system: 786-0 renal
[2] = system: A498 renal
[3] = system: A549 NSCLC
[4] = system: ACHN renal
[5] = system: CAKI-1 renal
[6] = system: CCRF-CEM leukemia
[7] = system: COLO 205 colon
[8] = system: DLD-1 colon
[9] = system: DMS 114 small cell lung
[10] = system: DMS 273 small cell lung
[11] = system: EKVX NSCLC
[12] = system: HCC-2998 colon
[13] = system: HCT-116 colon
[14] = system: HCT-15 colon
[15] = system: HL-60(TB) leukemia
[16] = system: HOP-18 NSCLC
[17] = system: HOP-62 NSCLC
[18] = system: HOP-92 NSCLC
[19] = system: HT29 colon
[20] = system: IGROV1 ovarian
[21] = system: K-562 leukemia
[22] = system: KM12 colon
[23] = system: KM20L2 colon
[24] = system: LOX IMVI melanoma
[25] = system: LXFL 529 NSCLC
[26] = system: M14 melanoma
[27] = system: M19-MEL melanoma
[28] = system: MALME-3M melanoma
[29] = system: MOLT-4 leukemia
[30] = system: NCI-H226 lung
[31] = system: NCI-H23 lung
[32] = system: NCI-H460 lung
[33] = system: NCI-H522 lung
[34] = system: OVCAR-3 ovarian
[35] = system: OVCAR-4 ovarian
[36] = system: OVCAR-5 ovarian
[37] = system: OVCAR-8 ovarian
[38] = system: RPMI-8226 leukemia
[39] = system: RXF 393 renal
[40] = system: RXF-631 renal
[41] = system: SF-268 CNS
[42] = system: SF-295 CNS
[43] = system: SF-539 CNS
[44] = system: SK-MEL-2 melanoma
[45] = system: SK-MEL-28 melanoma
[46] = system: SK-MEL-5 melanoma
[47] = system: SK-OV-3 ovarian
[48] = system: SN12C renal
[49] = system: SNB-19 CNS
[50] = system: SNB-75 CNS
[51] = system: SNB-78 CNS
[52] = system: SW-620 colon
[53] = system: TK-10 renal
[54] = system: U251 CNS
[55] = system: UACC-257 melanoma
[56] = system: UACC-62 melanoma
[57] = system: UO-31 renal
[58] = system: XF 498 CNS
[59] = system: BT-549 breast
[60] = system: DU-145 prostate
[61] = system: HS 578T breast
[62] = system: MCF7 breast
[63] = system: MDA-MB-435
[64] = system: MDA-N
[65] = system: PC-3 prostate
[66] = system: SR leukemia
[67] = system: T-47D breast

C[C@]12Cc3cn[nH]c3C(=O)C1CC[C@@H]1C2CC[C@@]2(C)C1CC[C@]2(C)O (stereo partly specified)
TGI [1]: > 100 µM | TGI [2]: > 100 µM | TGI [3]: > 100 µM | TGI [4]: > 100 µM | TGI [5]: > 100 µM | TGI [6]: > 100 µM | TGI [7]: > 100 µM | TGI [8]: > 100 µM | TGI [9]: > 100 µM | TGI [10]: > 100 µM | TGI [11]: > 100 µM | TGI [12]: > 100 µM | TGI [13]: > 100 µM | TGI [14]: > 100 µM | TGI [15]: > 100 µM | TGI [16]: > 100 µM | TGI [17]: > 100 µM | TGI [18]: > 100 µM | TGI [19]: > 100 µM | TGI [20]: > 100 µM | TGI [21]: > 100 µM | TGI [22]: > 100 µM | TGI [23]: > 100 µM | TGI [24]: > 100 µM | TGI [25]: > 100 µM | TGI [26]: > 100 µM | TGI [27]: > 100 µM | TGI [28]: > 100 µM | TGI [29]: > 100 µM | TGI [30]: > 100 µM | TGI [31]: > 100 µM | TGI [32]: > 100 µM | TGI [33]: > 100 µM | TGI [34]: > 100 µM | TGI [35]: > 100 µM | TGI [36]: > 100 µM | TGI [37]: > 100 µM | TGI [38]: > 100 µM | TGI [39]: > 100 µM | TGI [40]: > 100 µM | TGI [41]: > 100 µM | TGI [42]: > 100 µM | TGI [43]: > 100 µM | TGI [44]: > 100 µM | TGI [45]: > 100 µM | TGI [46]: > 100 µM | TGI [47]: > 100 µM | TGI [48]: > 100 µM | TGI [49]: > 100 µM | TGI [50]: > 100 µM | TGI [51]: > 100 µM | TGI [52]: > 100 µM | TGI [53]: > 100 µM | TGI [54]: > 100 µM | TGI [55]: > 100 µM | TGI [56]: > 100 µM | TGI [57]: > 100 µM | TGI [58]: > 100 µM

NC1CCC[C@H]1O (stereo partly specified)
TGI [1]: > 100 µM | TGI [2]: > 100 µM | TGI [3]: > 100 µM | TGI [4]: > 100 µM | TGI [6]: > 100 µM | TGI [7]: > 100 µM | TGI [8]: > 100 µM | TGI [9]: > 100 µM | TGI [10]: > 100 µM | TGI [11]: > 100 µM | TGI [12]: > 100 µM | TGI [13]: > 100 µM | TGI [14]: > 100 µM | TGI [15]: > 100 µM | TGI [16]: > 100 µM | TGI [17]: > 100 µM | TGI [18]: > 100 µM | TGI [19]: > 100 µM | TGI [20]: > 100 µM | TGI [21]: > 100 µM | TGI [22]: > 100 µM | TGI [23]: > 100 µM | TGI [24]: > 100 µM | TGI [26]: > 100 µM | TGI [27]: > 100 µM | TGI [28]: > 100 µM | TGI [29]: > 100 µM | TGI [30]: > 100 µM | TGI [31]: > 100 µM | TGI [32]: > 100 µM | TGI [33]: > 100 µM | TGI [34]: > 100 µM | TGI [35]: > 100 µM | TGI [37]: > 100 µM | TGI [38]: > 100 µM | TGI [39]: > 100 µM | TGI [40]: > 100 µM | TGI [41]: > 100 µM | TGI [42]: > 100 µM | TGI [43]: > 100 µM | TGI [44]: > 100 µM | TGI [45]: > 100 µM | TGI [46]: > 100 µM | TGI [47]: > 100 µM | TGI [48]: > 100 µM | TGI [49]: > 100 µM | TGI [50]: > 100 µM | TGI [51]: > 100 µM | TGI [52]: > 100 µM | TGI [53]: > 100 µM | TGI [54]: > 100 µM | TGI [55]: > 100 µM | TGI [56]: > 100 µM | TGI [57]: > 100 µM | TGI [58]: > 100 µM

C=C(CN(C)C)C(=O)c1ccc(OC2OC(COC(C)=O)C(OC(C)=O)C(OC(C)=O)C2OC(C)=O)cc1 (stereo unspecified)
TGI [1]: 3.82 µM | TGI [2]: 21 µM | TGI [3]: 45.2 µM | TGI [4]: 3.21 µM | TGI [59]: 10.8 µM | TGI [5]: 9.54 µM | TGI [6]: 0.342 µM | TGI [7]: 3.17 µM | TGI [8]: 3.83 µM | TGI [9]: 14.6 µM | TGI [10]: > 51.7 µM | TGI [60]: 31.3 µM | TGI [11]: 54.2 µM | TGI [12]: 36.8 µM | TGI [13]: 6.12 µM | TGI [14]: 11.3 µM | TGI [15]: > 100 µM | TGI [16]: 9.82 µM | TGI [17]: 24.3 µM | TGI [61]: > 83.7 µM | TGI [19]: 12.2 µM | TGI [20]: 36.1 µM | TGI [21]: 0.474 µM | TGI [22]: 41.6 µM | TGI [23]: 40.8 µM | TGI [24]: 8.49 µM | TGI [25]: 2.9 µM | TGI [26]: 11.2 µM | TGI [28]: 7.51 µM | TGI [62]: 5.51 µM | TGI [63]: 14.2 µM | TGI [64]: 11.1 µM | TGI [30]: 19.8 µM | TGI [31]: 43.3 µM | TGI [32]: 40.8 µM | TGI [34]: 14.5 µM | TGI [35]: > 29.2 µM | TGI [36]: 37.4 µM | TGI [37]: 19.2 µM | TGI [65]: 32 µM | TGI [38]: > 100 µM | TGI [39]: 3.69 µM | TGI [40]: 29.3 µM | TGI [41]: 62 µM | TGI [42]: 36 µM | TGI [43]: 30.6 µM | TGI [44]: 33.3 µM | TGI [45]: 9.22 µM | TGI [46]: 20.3 µM | TGI [47]: 35.5 µM | TGI [48]: 26.2 µM | TGI [49]: 39.4 µM | TGI [50]: 38.5 µM | TGI [51]: 50.8 µM | TGI [66]: 4.94 µM | TGI [52]: 3.17 µM | TGI [67]: 15.7 µM | TGI [53]: 7.06 µM | TGI [54]: 46.2 µM | TGI [55]: 5.94 µM | TGI [56]: 22.4 µM | TGI [57]: 6.73 µM | TGI [58]: 9.77 µM
